Measurements as given in patent US4125607A, “Daunosaminyl anthracyclinones and their use” (Societa' Farmaceutici Italia S.p.A., priority 1975, dated 1978).
Values after ≈ are worked out from the molar mass of the structure shown. Like-named read-outs stand apart in the source and are kept apart here.

How the values were obtained:
[1] = tested on: L1210 leukemia; assay: Activity on L1210 leukemia in BDF1 mice (Table 4); assay type: in vivo
Experimental: |Activity on L1210 leukemia |BDF1 mice were injected ip with 10^5 ascites |cells on Day 0 and treated ip on Day 1.

[2] = tested on: P 388 leukemia; assay: Activity on P 388 leukemia in BDF1 mice (Table 3); assay type: in vivo
Text: ^2 BDF1 mice received 10^6 ascites cells ip on Day 0 - Treatment

[3] = tested on: Gross leukemia; assay: Activity on Gross leukemia in C3H/Hc mice (Table 3); assay type: in vivo
Text: ^3 C3H/Hc mice received 2×10^6 leukemic cells iv on Day 0 -
Treatment iv on Days 1, 2, 3.

[4] = tested on: L 1210 leukemia; assay: Activity on L 1210 leukemia in BDF1 mice (Table 3); assay type: in vivo
Text: ^1 BDF1 mice received 10^5 ascites cells ip on Day 0 - Treatment

[5] = tested on: HeLa cells; assay: Inhibition of colony forming ability of cultured HeLa cells in vitro; assay type: cell-based; settings: for IC50: Homo sapiens, read-out: ID50 (50% inhibiting dose)
Text: Biological activity on cultured HeLa cells. Data
are expressed as 50% inhibiting dose (ng/ml) at
different times of exposure.

[6] = tested on: Sarcoma 180 ascites; assay: Antitumor activity in mice bearing Sarcoma 180 ascites, single ip treatment on day 1; assay type: in vivo; settings: for LTS (long term survivors) / T/C % (survival time as percentage of controls) / TOX (toxic deaths): single ip on day 1
Text: Antitumor activity in mice bearing Sarcoma 180 ascites;
single intraperitoneal treatment on day 1. The results
are expressed as the time of survival of treated animals
as a percentage of the controls (T/C %), the number of
long term survivors (LTS) and toxic deaths (TOX).

Cc1cc2c(cc1C)C(=O)c1c(O)c3c(c(O)c1C2=O)CC(O)(C(=O)CO)CC3OC1CC(N)C(O)C(C)O1 (stereo not shown) [2,3-Dimethyl-4-demethoxy-adriamycin, 4-demethoxy-2,3-dimethyladriamycin]
T/C % ([1]; L1210, 1.9 mg/kg ip on Day 1): 152% | T/C % ([1]; L1210, 2.9 mg/kg ip on Day 1): 152% | LTS ([1]; L1210, 4.4 mg/kg ip on Day 1): 1/10 | T/C % ([1]; L1210, 4.4 mg/kg ip on Day 1): 170%

COc1cccc2c1C(=O)c1c(O)c3c(c(O)c1C2=O)C[C@@](O)(C(=O)CO)C[C@@H]3O[C@H]1C[C@H](N)[C@H](O)[C@H](C)O1 [Adriamycin]
T/C % ([2]; P 388, 2.5 mg/kg ip on Day 1): 173% | T/C % ([2]; P 388, 5 mg/kg ip on Day 1): 218% | T/C % ([2]; P 388, 10 mg/kg ip on Day 1): 230% | Tox ([2]; P 388, 10 mg/kg ip on Day 1): 1/10 | T/C % ([3]; 3.5 mg/kg iv on Days 1, 2, 3): 164% | T/C % ([3]; 4.4 mg/kg iv on Days 1, 2, 3): 186% | T/C % ([3]; 6.0 mg/kg iv on Days 1, 2, 3): 214% | Tox ([3]; 6.0 mg/kg iv on Days 1, 2, 3): 3/10 | T/C % ([4]; L 1210, 2.5 mg/kg ip on Day 1): 155% | T/C % ([4]; L 1210, 5 mg/kg ip on Day 1): 166% | Tox ([4]; L 1210, 5 mg/kg ip on Day 1): 1/10 | T/C % ([4]; L1210, 10 mg/kg ip on Day 1): 155% | Tox ([4]; L1210, 10 mg/kg ip on Day 1): 4/10 | T/C % ([1]; L1210, 2.9 mg/kg ip on Day 1): 141% | LTS ([1]; L1210, 4.4 mg/kg ip on Day 1): 1/10 | T/C % ([1]; L1210, 4.4 mg/kg ip on Day 1): 152% | T/C % ([1]; L1210, 6.6 mg/kg ip on Day 1): 158% | LTS ([1]; L1210, 10 mg/kg ip on Day 1): 1/10 | T/C % ([1]; L1210, 10 mg/kg ip on Day 1): 164% | IC50 ([5]; HeLa, 2 h): 125 ng/mL (≈ 0.23 µM) | IC50 ([5]; HeLa, 8 h): 28 ng/mL (≈ 0.0515 µM) | IC50 ([5]; HeLa, 24 h): 12.5 ng/mL (≈ 0.023 µM) | LTS (long term survivors) ([6]; 2.5 mg/kg): 7/10 | T/C % (survival time as percentage of controls) ([6]; 2.5 mg/kg): above 583% | LTS (long term survivors) ([6]; 5.0 mg/kg): 2/10 | T/C % (survival time as percentage of controls) ([6]; 5.0 mg/kg): 211% | TOX (toxic deaths) ([6]; 5.0 mg/kg): 3/9 | T/C % (survival time as percentage of controls) ([6]; 10.0 mg/kg): 163% | TOX (toxic deaths) ([6]; 10.0 mg/kg): 4/10

CC1OC(OC2CC(O)(C(=O)CO)Cc3c(O)c4c(c(O)c32)C(=O)c2ccccc2C4=O)CC(N)C1O (stereo not shown) [4-demethoxyadriamycin]
T/C % ([2]; P 388, 0.25 mg/kg ip on Day 1): 168% | T/C % ([2]; P 388, 0.5 mg/kg ip on Day 1): 195% | T/C % ([2]; P 388, 1 mg/kg ip on Day 1): 209% | Tox ([2]; P 388, 1 mg/kg ip on Day 1): 2/10 | T/C % ([3]; 0.35 mg/kg iv on Days 1, 2, 3): 228% | Tox ([3]; 0.35 mg/kg iv on Days 1, 2, 3): 1/10 | T/C % ([3]; 0.45 mg/kg iv on Days 1, 2, 3): 214% | Tox ([3]; 0.45 mg/kg iv on Days 1, 2, 3): 1/10 | T/C % ([3]; 0.6 mg/kg iv on Days 1, 2, 3): 157% | Tox ([3]; 0.6 mg/kg iv on Days 1, 2, 3): 8/10 | T/C % ([4]; L 1210, 0.25 mg/kg ip on Day 1): 155% | T/C % ([4]; L 1210, 0.5 mg/kg ip on Day 1): 166% | T/C % ([4]; L 1210, 1 mg/kg ip on Day 1): 133% | Tox ([4]; L 1210, 1 mg/kg ip on Day 1): 10/10 | Activity relative to adriamycin (inhibition of colony forming ability) ([5]; HeLa cells in vitro, from Table 1): about one hundred times more active than adriamycin | IC50 ([5]; HeLa cells, 2 hrs. exposure): 1.5 ng/mL (≈ 0.00292 µM) | IC50 ([5]; HeLa cells, 8 hrs. exposure): 0.34 ng/mL (≈ 0.000662 µM) | IC50 ([5]; HeLa cells, 24 hrs. exposure): 0.14 ng/mL (≈ 0.000273 µM) | LTS (long term survivors) ([6]; 0.25 mg/kg): 7/10 | T/C % (survival time as percentage of controls) ([6]; 0.25 mg/kg): above 583% | LTS (long term survivors) ([6]; 0.5 mg/kg): 6/10 | T/C % (survival time as percentage of controls) ([6]; 0.5 mg/kg): above 583% | T/C % (survival time as percentage of controls) ([6]; 1.0 mg/kg): 218% | TOX (toxic deaths) ([6]; 1.0 mg/kg): 6/9 | Activity relative to adriamycin ([6]; Sarcoma 180 ascites, from Table 2): at least ten times more active than adriamycin
